Data published in ChEMBL document CHEMBL2440080, “Synthesis and biological evaluation of novel acylhydrazone derivatives as potential antitumor agents” (Bioorg Med Chem, 2013).

Columns and labels:
CAKI-1 = assay: Cytotoxicity against human CAKI-1 cells after 48 hrs by sulforhodamine B assay; type: functional; conditions: CAKI-1, 48 h
Mus musculus = assay: Toxicity in athymic nude mouse assessed as survival at 400 mg/kg, ip measured after 2 weeks; type: organism-based; design: dose 400 mg/kg, route intraperitoneal; conditions: in vivo, 336 h
T47D = assay: Cytotoxicity against human T47D cells after 48 hrs by sulforhodamine B assay; type: functional
BT-549 = assay: Cytotoxicity against human BT549 cells after 48 hrs by sulforhodamine B assay; type: functional; conditions: BT-549, 48 h
NCI/ADR-RES = assay: Cytotoxicity against human NCI/ADR-RES cells after 48 hrs by sulforhodamine B assay; type: functional
DU-145 = assay: Cytotoxicity against human DU145 cells after 48 hrs by sulforhodamine B assay; type: functional; conditions: DU-145, 48 h
PC-3 = assay: Cytotoxicity against human PC3 cells after 48 hrs by sulforhodamine B assay; type: functional; conditions: PC-3, 48 h
TK-10 = assay: Cytotoxicity against human TK10 cells after 48 hrs by sulforhodamine B assay; type: functional; conditions: TK-10, 48 h
ACHN = assay: Cytotoxicity against human ACHN cells after 48 hrs by sulforhodamine B assay; type: functional
RXF 393 = assay: Cytotoxicity against human RXF393 cells after 48 hrs by sulforhodamine B assay; type: functional; conditions: RXF 393, 48 h
OVCAR-8 = assay: Cytotoxicity against human OVCAR8 cells after 48 hrs by sulforhodamine B assay; type: functional; conditions: OVCAR-8, 48 h
OVCAR-4 = assay: Cytotoxicity against human OVCAR4 cells after 48 hrs by sulforhodamine B assay; type: functional; conditions: OVCAR-4, 48 h
IGROV-1 = assay: Cytotoxicity against human IGROV1 cells after 48 hrs by sulforhodamine B assay; type: functional; conditions: IGROV-1, 48 h
OVCAR-3 = assay: Cytotoxicity against human OVCAR3 cells after 48 hrs by sulforhodamine B assay; type: functional; conditions: OVCAR-3, 48 h
UACC-62 = assay: Cytotoxicity against human UACC62 cells after 48 hrs by sulforhodamine B assay; type: functional; conditions: UACC-62, 48 h
M14 = assay: Cytotoxicity against human M14 cells after 48 hrs by sulforhodamine B assay; type: functional; conditions: M14, 48 h
LOX IMVI = assay: Cytotoxicity against human LOXIMVI cells after 48 hrs by sulforhodamine B assay; type: functional
SNB-75 = assay: Cytotoxicity against human SNB75 cells after 48 hrs by sulforhodamine B assay; type: functional; conditions: SNB-75, 48 h
U-251 = assay: Cytotoxicity against human U251 cells after 48 hrs by sulforhodamine B assay; type: functional; conditions: U-251, 48 h
SF-295 = assay: Cytotoxicity against human SF295 cells after 48 hrs by sulforhodamine B assay; type: functional; conditions: SF-295, 48 h
SF-268 = assay: Cytotoxicity against human SF268 cells after 48 hrs by sulforhodamine B assay; type: functional; conditions: SF-268, 48 h
KM12 = assay: Cytotoxicity against human KM12 cells after 48 hrs by sulforhodamine B assay; type: functional; conditions: KM12, 48 h
HCT-116 = assay: Cytotoxicity against human HCT116 cells after 48 hrs by sulforhodamine B assay; type: functional; conditions: HCT-116, 48 h
HCT-15 = assay: Cytotoxicity against human HCT15 cells after 48 hrs by sulforhodamine B assay; type: functional; conditions: HCT-15, 48 h
NCI-H460 = assay: Cytotoxicity against human NCI-H460 cells after 48 hrs by sulforhodamine B assay; type: functional; conditions: NCI-H460, 48 h
NCI-H322M = assay: Cytotoxicity against human NCI-H322M cells after 48 hrs by sulforhodamine B assay; type: functional
HOP-92 = assay: Cytotoxicity against human HOP92 cells after 48 hrs by sulforhodamine B assay; type: functional; conditions: HOP-92, 48 h
[1] = Cytotoxicity against human EKVX cells after 48 hrs by sulforhodamine B assay; type: functional
HOP-62 = assay: Cytotoxicity against human HOP62 cells after 48 hrs by sulforhodamine B assay; type: functional; conditions: HOP-62, 48 h
SR = assay: Cytotoxicity against human SR cells after 48 hrs by sulforhodamine B assay; type: functional
RPMI-8226 = assay: Cytotoxicity against human RPMI8226 cells after 48 hrs by sulforhodamine B assay; type: functional; conditions: RPMI-8226, 48 h
MOLT-4 = assay: Cytotoxicity against human MOLT4 cells after 48 hrs by sulforhodamine B assay; type: functional; conditions: MOLT-4, 48 h
CCRF-CEM = assay: Cytotoxicity against human CCRF-CEM cells after 48 hrs by sulforhodamine B assay; type: functional
HL-60(TB) = assay: Cytotoxicity against human HL-60(TB) cells after 48 hrs by sulforhodamine B assay; type: functional; conditions: HL-60, 48 h

SMILES | GI50 (CAKI-1) [nM] | Activity (Mus musculus) | GI50 (T47D) [nM] | GI50 (BT-549) [nM] | GI50 (NCI/ADR-RES) [nM] | GI50 (DU-145) [nM] | GI50 (PC-3) [nM] | GI50 (TK-10) [nM] | GI50 (ACHN) [nM] | GI50 (RXF 393) [nM] | GI50 (OVCAR-8) [nM] | GI50 (OVCAR-4) [nM] | GI50 (IGROV-1) [nM] | GI50 (OVCAR-3) [nM] | GI50 (UACC-62) [nM] | GI50 (M14) [nM] | GI50 (LOX IMVI) [nM] | GI50 (SNB-75) [nM] | GI50 (U-251) [nM] | GI50 (SF-295) [nM] | other results
O=C(N/N=C/c1ccccc1O)c1ccccc1Nc1ccnc(C(F)(F)F)c1 | 316 | Non-toxic | 1260 | 631 | 398 | 631 | 126 | 501 | 398 | 63.1 | 501 | 251 | 15.8 | 316 | 398 | 501 | 316 | 316 | 501 | 501 | GI50 (SF-268): 631 nM; GI50 (KM12): 398 nM; GI50 (HCT-116): 398 nM; GI50 (HCT-15): 200 nM; GI50 (NCI-H460): 251 nM; GI50 (NCI-H322M): 398 nM; GI50 (HOP-92): 158 nM; GI50 [1]: 316 nM; GI50 (HOP-62): 398 nM; GI50 (SR): 50.1 nM; GI50 (RPMI-8226): 200 nM; GI50 (MOLT-4): 316 nM; GI50 (CCRF-CEM): 200 nM; GI50 (HL-60(TB)): 398 nM
CCOc1cccc(/C=N/NC(=O)c2ccccc2Nc2ccnc(C(F)(F)F)c2)c1O | 251 | Non-toxic | 794 | 398 | 631 | 794 | 200 | 631 | 316 | 12600 | 501 | 251 | 39.8 | 316 | 501 | 631 | 200 | 398 | 398 | 501 | GI50 (SF-268): 794 nM; GI50 (KM12): 501 nM; GI50 (HCT-116): 316 nM; GI50 (HCT-15): 251 nM; GI50 (NCI-H460): 251 nM; GI50 (NCI-H322M): 398 nM; GI50 (HOP-92): 158 nM; GI50 [1]: 251 nM; GI50 (HOP-62): 501 nM; GI50 (SR): 63.1 nM; GI50 (RPMI-8226): 251 nM; GI50 (MOLT-4): 126 nM; GI50 (CCRF-CEM): 251 nM; GI50 (HL-60(TB)): 251 nM
COc1cccc(/C=N/NC(=O)c2ccccc2Nc2ccnc(C(F)(F)F)c2)c1O | 200 | Non-toxic | 501 | 398 | 501 | 794 | 200 | 316 | 100 | 200 | 251 | 126 | 25.1 | 100 | 316 | 398 | 200 | 251 | 398 | 398 | GI50 (SF-268): 631 nM; GI50 (KM12): 398 nM; GI50 (HCT-116): 316 nM; GI50 (HCT-15): 158 nM; GI50 (NCI-H460): 200 nM; GI50 (NCI-H322M): 251 nM; GI50 (HOP-92): 158 nM; GI50 [1]: 251 nM; GI50 (HOP-62): 398 nM; GI50 (SR): 50.1 nM; GI50 (RPMI-8226): 158 nM; GI50 (MOLT-4): 10 nM; GI50 (CCRF-CEM): 251 nM; GI50 (HL-60(TB)): 200 nM
